Experimental data from patent publication US20150140015A1, “METHODS AND PHARMACEUTICAL COMPOSITIONS FOR THE TREATMENT OF PANCREATIC CANCER” (INSERM (Institut National de la Sante et de la Recherche …, priority 2013, published 2015).

Assays:
[1] = tested on: HPAF-II cells expressing recombinant OX1R; experiment: Quantification of apoptotic cells by annexin V-PE labeling in recombinant OX1R/HPAF-II cells; format: cell-based, human; details: OX1R-expressing HPAF-II cells; NSC-87877 50 μM with 1 μM orexin-A
Procedure: FIGS. 5A and B. Effect of orexin-A on apoptosis in OX1R expressing recombinant OX1R/HPAF-II cells. A, Parental HPAF-II and recombinant OX1R/HPAF-II cells were challenged with (black bars) or without (white bars) 1 μM orexin-A for 48 hr in the absence or presence of the SHP-2 protein tyrosine phosphatase inhibitor, NSC-87877 (50 μM). Apoptosis was measured by determination of annexin V-PE binding. Results are expressed as the percentage of apoptotic cells, and are the means±SE of three separate experiments. ***p<0.001; ns, non-significant; B, paraformaldehyde-fixed HPAF-II cells and recombinant OX1R/HPAF-II cells were challenged with or without (Basal) 1 μM orexin-A for 48 hr. Indirect immunostaining of activated caspase-3 in parental HPAF-II cells (left panels) and recombinant OX1R/HPAF-II cells (right panels) in the presence (bottom panels) or tabsence (top panels) of orexin-A is illustrated in B. […]
AsPC-1, SW 1990, HPAF-II and HPAF-II/hOX1R cells (seeded at 5×10^4 cells/well) were grown in 24-well plates for 24 hr under the culture conditions described above. […] Results are expressed as the percentage of apoptotic phycoerythrin-labelled Annexin V (Annexin V-PE) positive cells and are the means of 3 independent analyses.

parental HPAF-II cells = experiment: Quantification of apoptotic cells by annexin V-PE labeling in parental HPAF-II cells; format: cell-based, human; details: parental HPAF-II cells; NSC-87877 50 μM
Procedure: FIGS. 5A and B. Effect of orexin-A on apoptosis in OX1R expressing recombinant OX1R/HPAF-II cells. A, Parental HPAF-II and recombinant OX1R/HPAF-II cells were challenged with (black bars) or without (white bars) 1 μM orexin-A for 48 hr in the absence or presence of the SHP-2 protein tyrosine phosphatase inhibitor, NSC-87877 (50 μM). Apoptosis was measured by determination of annexin V-PE binding. Results are expressed as the percentage of apoptotic cells, and are the means±SE of three separate experiments. ***p<0.001; ns, non-significant; B, paraformaldehyde-fixed HPAF-II cells and recombinant OX1R/HPAF-II cells were challenged with or without (Basal) 1 μM orexin-A for 48 hr. Indirect immunostaining of activated caspase-3 in parental HPAF-II cells (left panels) and recombinant OX1R/HPAF-II cells (right panels) in the presence (bottom panels) or tabsence (top panels) of orexin-A is illustrated in B.
(§1) AsPC-1, SW 1990, HPAF-II and HPAF-II/hOX1R cells (seeded at 5×10^4 cells/well) were grown in 24-well plates for 24 hr under the culture conditions described above. The culture medium was then replaced every 24 hr with fresh medium with or without orexin-A (GL Biochemicals) at a concentration of 1 μM in the presence or absence of the SHP-2 inhibitor, NSC-87877 (50 μM) (Calbiochem, VWR International SAS, France). At the end of the treatment (48 hr), apoptotic cells were determined using the Guava Nexin™ kit (Guava Technologies, Hayward, Calif., USA), which discriminates between apoptotic and non-apoptotic cells (Rouet-Benzineb P, Rouyer-Fessard C, Jarry A, et al. Orexins Acting at Native OX1 Receptor in Colon Cancer and Neuroblastoma Cells or at Recombinant OX1 Receptor Suppress Cell Growth by Inducing Apoptosis. J Biol Chem 2004; 279:45875-86), analyzed with the Guava Personal Cell Analysis (PCA) system (Merck-Millipore, Guyancourt, France), and counted (2,000 events) (Voisin et al, 2008, as above). Results are expressed as the percentage of apoptotic phycoerythrin-labelled Annexin V (Annexin V-PE) positive cells and are the means of 3 independent analyses.

AsPC-1 cells [2] = experiment: Quantification of apoptotic cells by annexin V-PE labeling in AsPC-1 cells; format: cell-based, human; details: 48 hr; for effect of SHP-2 inhibitor on orexin-induced apoptosis: AsPC-1 cells, NSC-87877 50 μM with 1 μM orexin-A
Procedure: FIG. 4A-C. Effect of orexin-A on apoptosis in AsPC-1 cells. A, SHP-2 protein tyrosine phosphatase inhibitor, NSC-87877, blocks orexin-induced apoptosis. AsPC-1 cells were challenged with (black bars) or without (white bars) 1 μM orexin-A for 48 hr in the absence or presence of NSC-87877 (50 μM). Apoptosis was measured by determination of annexin V-PE binding, and results are expressed as the percentage of apoptotic cells; B and C: Indirect immunostaining of activated caspase-3 in AsPC-1 cells in the presence or absence of orexin-A. Paraformaldehyde-fixed AsPC-1 cells were challenged with (orexin-A) or without (basal) 1 μM orexin-A for 48 hr. Activated caspase-3 immunostaining is shown in B and scored in C. Results are means±SE of three separate experiments. ***p<0.001; ns, non-significant.
as §1

AsPC-1 cells [3] = experiment: Cell growth of AsPC-1 cells (cell counting); format: cell-based, human; details: 0.1 μM, 48 h; AsPC-1 cells (FIG. 9)
Procedure: FIG. 9. Effect of Orexin-B anti-OX1R antibodies on cell growth of AsPC-1 cells. Cells were incubated with 0.1 μM of OxB or antibodies for 48 h in culture medium and then cells were counted in order to estimate the cellular growth.
The aims of this study were: 1/ to investigate the presence of OX1R in human PAC cell lines and to analyze orexin-A effects in relation to apoptosis; 2/ to develop an in vivo heterotopic xenograft model from the cell lines expressing OX1R, for the study of tumor growth in response to Orexin-A. The expression of OX1R was studied at mRNA (RT-PCR), proteins (immunocytochemistry) and functional levels in 3 PAC cell lines (AsPC-1, HPAF-II and SW1990). The development of an animal model (heterotopic xenograft) from the cell line expressing OX1R, has allowed studying the effect of Orexin-A in tumor growth. Resected tumors were analyzed by immunohistochemistry. Only AsPC-1 cell line expresses OX1R.
The development of antibodies directed against OX1R were produced by a phage display strategy and the antibody selection was performed by using HEK and HEK stably expressing OX1R (HEK-OX1R) cell lines. […] Cells were incubated with 0.1 μM of OxB or antibodies for 48 h in culture medium and then cells were counted in order to estimate the cellular growth. […]

[4] = tested on: HEK stably expressing OX1R (HEK-OX1R); experiment: Cell growth of HEK-OX1R cells (cell counting); format: cell-based; details: 0.1 μM, 48 h
Procedure: The development of antibodies directed against OX1R were produced by a phage display strategy and the antibody selection was performed by using HEK and HEK stably expressing OX1R (HEK-OX1R) cell lines. […] Cells were incubated with 0.1 μM of OxB or antibodies for 48 h in culture medium and then cells were counted in order to estimate the cellular growth. […] We have tested the ability of antibodies to inhibit the cellular growth in cancer cell lines derived from and pancreas cancer (AsPC-1 cells).

O=S(=O)(O)c1ccc2cc(N=Nc3cc(S(=O)(=O)O)c4cccnc4c3O)ccc2c1 [NSC-87877]
effect of SHP-2 inhibitor on orexin-A-induced apoptosis [1]: totally abolished
effect of SHP-2 inhibitor on apoptosis (parental HPAF-II cells): no effect
effect of SHP-2 inhibitor on orexin-induced apoptosis (AsPC-1 cells [2]): reverse orexin-induced apoptosis
effect of SHP-2 inhibitor on orexin-induced apoptosis (AsPC-1 cells [2]; listed as NSC 87877): totally abolished
percentage of apoptotic cells (annexin V-PE) (AsPC-1 cells [2]; NSC 87877 (50 μM) in the absence of orexin-A): 4.6%±0.9
percentage of apoptotic cells (annexin V-PE) (AsPC-1 cells [2]; NSC 87877 (50 μM) in the presence of 1 μM orexin-A): 4.8%±0.5

orexin-B: 28 amino acid hypothalamic neuropeptide, SEQ ID NO:3
inhibition of cell growth (AsPC-1 cells [3]): able to inhibit the cell growth
reduction of HEK-OX1R cell number [4]: 40±3%
